Experimental data from publication PMC7256013, “Preclinical evaluation of cationic DOTA-triarginine-lipid conjugates for theranostic liquid brachytherapy” (Nanotheranostics, 2020).

Columns and labels:
[1] = Tumor retention and biodistribution by PET/CT after intratumoral injection; details: mean ± SEM; for Absolute retention of radioactivity in tumors: PET; for tumor retention: CT26 tumor, PET/CT
Experimental: CT26 wildtype cells (murine colon carcinoma, ATCC, Virginia, US) were cultured RPMI (Roswell Park Memorial Institute) medium supplemented with 10 % heat-inactivated Fetal Calf Serum (FCS) and 1 % Penicillin-Streptomycin (Invitrogen, Carlsbad, CA., US) retained in 5 % CO2 incubator at 37 °C. Immunocompetent female Balb/C mice (Charles River, Wilmington, MA., USA) were inoculated with tumor cells after one week of adaptation. All 20 mice included were inoculated subcutaneously with 3 x 10^5 CT26 wildtype cells in 100 µL medium on the right flank and hereafter monitored for weight and tumor size continuously for study purposes and to monitor the health of the mice. Tumor sizes were calculated from the formula of 0.52 x lenght^2 x width, as measured by external caliper. Animals were included in the study when tumors were approximately 400 mm^3.
(§1) Mice were injected intratumorally with ^64Cu-compounds in concentrations of 40 MBq/mL. During the scan procedures, mice were anaesthetized using 3-4 % sevoflurane (Abbott Scandinavia AB, Sweden) mixed with 35% O2 and 65% medical grade air and placed on heating pads. Two mice were positioned side-by-side, separated by a 6 mm polystyrene block for PET/CT imaging using Inveon® small animal PET/CT system with CT based PET image attenuation (Siemens Medical Systems, Malvern, PA, USA). The protocol included a 12-minute PET scan, followed by a CT scan. Mice were fixed on a bed inside the scanner with the syringe placed and the needle fixed centrally in the tumor and ready for injection. Upon initiation of the first scan, intratumoral injections were done manually over 30 seconds, to investigate the initial dynamics of the tracer diffusion. Following this, two further scans were included; at six hours (5 minutes scan time) and 24 hours (12 minutes scan time) after injection. Reconstruction of the PET scans were performed using maximum a posteriori (MAP) reconstruction algorithm (voxel size: 0.815 x 0.815 x 0.796 mm; resolution (FWHM) 1.2 mm). The injection scan was reconstructed in 4 x 30 second and 10 x 60 second time frames to observe the dynamics of tracer diffusion. The two last time points were reconstructed in a single time frame.
(§2) Image analysis was performed using commercially available Inveon software (Siemens Medical Systems, Malvern, PA, USA). Regions of interest (ROIs) were manually drawn based on the co-registered PET/CT images. The following ROIs were constructed; tumors (complete volume delineated), liver, spleen, kidney, bladder, and blood. Blood activity was estimated from a constructed ROI covering the left ventricular lumen of the heart. ROIs in the left ventricle and abdominal aorta were subsequently segmented to only include the voxels displaying above 80% of maximum activity with the original ROI. From the obtained uptake values all data was calculated into %ID/g for each organ and as %ID in tumors by adjusting for CT based tumor volume. Furthermore, voxel values from tumor ROIs were used to generate histograms for substance diffusion over time in the tumor region.

[2] = Ex vivo well counting of tumor and organs; details: ex vivo after the 24-hour scan, mean ± SEM
Experimental: After the completion of PET/CT imaging, mice were sacrificed and tumor, spleen, and liver tissue were collected and well counted (Wizard, Perkin Elmer, US). Tissue radioactivity was recorded and corrected for isotope decay and well counter efficiency. Final results are presented in %ID/organ calculated from activity and the tissue weight.

[3] = Intratumoral distribution of radioactivity, voxel frequency distribution from PET
Experimental: as §1, §2
Note that the first point in each plot represents the percentage of voxels with radioactivity concentrations lower than 1.6 %ID/g. These voxels are considered empty, meaning that the corresponding tumor region is non-radioactive.

[4] = 12 minutes post intratumoral injection, 40 MBq/mL
[5] = 5 minutes after the start of the PET scan

SMILES | Absolute retention of radioactivity in tumors ([1]; 0.25 min) | Absolute retention of radioactivity in tumors ([1]; 0.75 min) | Absolute retention of radioactivity in tumors ([1]; 1.25 min) | Absolute retention of radioactivity in tumors ([1]; 1.75 min) | Absolute retention of radioactivity in tumors ([1]; 2.5 min) | Absolute retention of radioactivity in tumors ([1]; 3.5 min) | Absolute retention of radioactivity in tumors ([1]; 4.5 min) | Absolute retention of radioactivity in tumors ([1]; 5.5 min) | Absolute retention of radioactivity in tumors ([1]; 6.5 min) | Absolute retention of radioactivity in tumors ([1]; 7.5 min) | Absolute retention of radioactivity in tumors ([1]; 8.5 min) | Absolute retention of radioactivity in tumors ([1]; 9.5 min) | Absolute retention of radioactivity in tumors ([1]; 10.5 min) | Absolute retention of radioactivity in tumors ([1]; 11.5 min) | tumor retention [1, 4] | Absolute retention of radioactivity in tumors ([1]; 6 h) | Absolute retention of radioactivity in tumors ([1]; 24 h) | Accumulation of radioactivity in liver [2] | Accumulation of radioactivity in spleen [2] | Accumulation of radioactivity in tumor [2] | also measured
O=C([O-])CN1CCN(CC(=O)[O-])CCN(CC(=O)O)CCN(CC(=O)O)CC1.[64Cu+2] [64Cu-DOTA] | 78 ± 37 %ID/g | 130 ± 13 %ID/g | 127 ± 14 %ID/g | 123 ± 14 %ID/g | 120 ± 14 %ID/g | 115 ± 14 %ID/g | 111 ± 14 %ID/g | 108 ± 14 %ID/g | 105 ± 14 %ID/g | 102 ±14 %ID/g | 100 ± 14 %ID/g | 97 ± 13 %ID/g | 94 ± 13 %ID/g | 92 ± 12 %ID/g | 52 ± 4 %ID/tumor | 4 ± 1 %ID/g | 2 ± 0.8 %ID/g | 1 ± 0.2 ID%/g | 0.3 ± 0.05 ID%/g | 1 ± 0.3 ID%/g | tumor retention ([1]; 6 hours post intratumoral injection): 2.4 ± 0.7 %ID/tumor; tumor retention ([1]; 24 hours post intratumoral injection): 1.4 ± 0.4 %ID/tumor; non-radioactive voxels in tumor (<1.6 %ID/g) [3, 5]: less than 10%; non-radioactive voxels in tumor (<1.6 %ID/g) ([3]; 6 h): More than 40%
[Cl][64Cu][Cl] [Free 64CuCl2] | 97 ± 19 %ID/g | 167 ± 50 %ID/g | 164 ± 53 %ID/g | 162 ± 54 %ID/g | 159 ± 53 %ID/g | 156 ± 54 %ID/g | 154 ± 53 %ID/g | 152 ± 53 %ID/g | 150 ± 53 %ID/g | 148 ± 52 %ID/g | 146 ± 52 %ID/g | 145 ± 53 %ID/g | 143 ± 52 %ID/g | 142 ± 51 %ID/g | 45 ± 5 %ID/tumor | 18 ± 3 %ID/g | 10 ± 1 %ID/g | 14 ± 1 ID%/g | 2 ± 0.6 ID%/g | 11 ± 3 ID%/g | non-radioactive voxels in tumor (<1.6 %ID/g) [3, 5]: less than 10%
